pIC50: −log10 of the molar value. Several values for one entry are separate records, joined by “and”; a condition that tells them apart may be missing. Equal entries are not always repeated. Structures can show the parent of a compound that is named as a salt.
Tests used:
[1] = test system: medulloblastoma cell lines; parameters: method as in PMID 19887560, PMID 26269112; details: cited from earlier work
telomerase = test system: telomerase; parameters: method as in PMID 26307677; details: cited from earlier work
[2] = Steady state plasma pharmacokinetics (LC/electrospray MS); format: in vivo, human
Method: Samples for pharmacokinetic analysis were obtained at baseline and during weeks 2 through 4 of cycle 1. At each time point, heparinized blood was collected into a plastic vacutainer to minimize adhesion of perifosine. Plasma was separated by centrifugation and stored in polypropylene cryovials at -70°C until assayed. Perifosine in plasma was measured by a validated reversed phase liquid chromatography/electrospray mass spectrometry method as developed and validated by Woo et al..

[3] = test system: recurrent or refractory pediatric CNS and solid tumors; assay: Tumor response assessment (RECIST; INRC for neuroblastoma); format: in vivo, human; parameters: key to Best Response: no response per INRC; PD: progressive disease per RECIST or INRC; SD: stable disease per RECIST; details: for Subjects with stable disease as best response: stable disease for 2 months
Method: Tumor assessments were performed approximately every 8 weeks. For subjects with tumors other than neuroblastoma, responses were assessed by the study radiologist and principal investigator (SH, ID) via the Response Evaluation Criteria in Solid Tumors (RECIST). For subjects with neuroblastoma, responses were assessed by a single investigator (BK) using the International Neuroblastoma Response Criteria (INRC).

[4] = test system: Rhabdomyosarcoma cell lines; parameters: method as in PMID 19887560, PMID 26269112; details: cited from earlier work
[5] = cited from earlier work

**Q.** Which results are given for `CCCCCCCCCCCCCCCCCCOP(=O)([O-])OC1CC[N+](C)(C)CC1` [perifosine, 1,1-Dimethyl-4-[[(octadecyloxy)hydroxyphosphinyl]oxy]-piperidinium inner salt]?
**A.** pIC50 [1]: 4.60; Doses inhibiting telomerase activity (telomerase): low micromolar; Average Plasma Level (standard deviation) ([2]; dose level 1, target 25 mg/m^2/day, patients 1,2,3, steady state): 6.8 (1.6) μg/mL; Average Plasma Level (standard deviation) ([2]; dose level 2, target 50 mg/m^2/day, patients 4,5,6, steady state): 14.4 (2.5) μg/mL and 39.0 (6.8) μM; Average Plasma Level (standard deviation) ([2]; dose level 3, target 75 mg/m^2/day, patients 7-11, steady state): 11.5 (3.1) μg/mL and 31.1 (8.5) μM; Average Plasma Level (standard deviation) ([2]; dose level 4, target 100 mg/m^2/day, patients 12-17, steady state): 12.7 (6.1) μg/mL and 34.4 (16.5) μM; Average Plasma Level (standard deviation) ([2]; dose level 5, target 125 mg/m^2/day, patients 18-22, steady state): 12.1 (3.5) μg/mL and 32.8 (9.5) μM; Steady state plasma levels ([2]; observed in most patients): above 10 μM; Maintenance dose at which dose exposure plateau is reached ([2]; pediatric patients, steady state plasma levels): 50 mg/m^2/day; Objective responses ([3]; 23 patients, all dose levels): No objective responses; Best Response ([3]; Patient 1, dose level 1, medulloblastoma): PD; Best Response ([3]; Patient 2, dose level 1, medulloblastoma): PD; Best Response ([3]; Patient 3, dose level 1, neuroblastoma): NR; Duration of Best Response ([3]; Patient 3, dose level 1, neuroblastoma, NR): 11 months; Best Response ([3]; Patient 4, dose level 2, glioblastoma): PD; Best Response ([3]; Patient 5, dose level 2, neuroblastoma): NR; Duration of Best Response ([3]; Patient 5, dose level 2, neuroblastoma, NR): 63 months; Best Response ([3]; Patient 6, dose level 2, anaplastic astrocytoma): SD; Duration of Best Response ([3]; Patient 6, dose level 2, anaplastic astrocytoma, SD): 2 months; Best Response ([3]; Patient 7, dose level 3, glioblastoma): SD; Duration of Best Response ([3]; Patient 7, dose level 3, glioblastoma, SD): 2 months; Best Response ([3]; Patient 8, dose level 3, anaplastic astrocytoma): SD; Duration of Best Response ([3]; Patient 8, dose level 3, anaplastic astrocytoma, SD): 2 months; Best Response ([3]; Patient 9, dose level 3, anaplastic astrocytoma): SD; Duration of Best Response ([3]; Patient 9, dose level 3, anaplastic astrocytoma, SD): 2 months; Best Response ([3]; Patient 10, dose level 3, ependymoma): PD; Best Response ([3]; Patient 11, dose level 3, neuroblastoma): NR; Duration of Best Response ([3]; Patient 11, dose level 3, neuroblastoma, NR): 2 months; Best Response ([3]; Patient 12, dose level 4, neuroblastoma): PD; Best Response ([3]; Patient 13, dose level 4, Ewing sarcoma/PNET): PD; Best Response ([3]; Patient 14, dose level 4, neuroblastoma): NR; Duration of Best Response ([3]; Patient 14, dose level 4, neuroblastoma, NR): 4 months; Best Response ([3]; Patient 15, dose level 4, neuroblastoma): NR; Duration of Best Response ([3]; Patient 15, dose level 4, neuroblastoma, NR): 42 months; Best Response ([3]; Patient 16, dose level 4, neuroblastoma): PD; Best Response ([3]; Patient 17, dose level 4, DIPG): PD; Best Response ([3]; Patient 18, dose level 5, Wilms tumor): PD; Best Response ([3]; Patient 19, dose level 5, DIPG): PD; Best Response ([3]; Patient 20, dose level 5, DIPG): SD; Duration of Best Response ([3]; Patient 20, dose level 5, DIPG, SD): 2 months; Best Response ([3]; Patient 21, dose level 5, ependymoma): PD; Best Response ([3]; Patient 22, dose level 5, ependymoma): PD; Best Response ([3]; Patient 23, dose level 5, neuroblastoma): PD; Subjects with disease stability (no response per INRC) ([3]; neuroblastoma, for 2, 4, 11, 42 and 63 months): Five of 8; Subjects with stable disease as best response ([3]; recurrent high-grade astrocytoma): 4 of 5; Duration of prolonged stable disease ([3]; three subjects with neuroblastoma): ≥ 11 months; Subjects with stable disease as best response ([3]; three subjects with recurrent DIPG): 1; pIC50 [4]: ~5.00; Dose at which dose exposure plateau was reached ([5]; 2 adult studies): higher than 100 mg/m^2/day; Plasma half-life [5]: approximately 4 days

Reference: PMC5459446, “A phase I study of single-agent perifosine for recurrent or refractory pediatric CNS and solid tumors” (PLoS ONE, 2017)
